# Experiments:
# [1] = molecular target: T1, glycolate oxidase (Spinacia oleracea, UniProt P05414); assay: Glycolate oxidase (DCIP) assay on Pichia pastoris whole-cell biocatalyst; format: biochemical, spinach; conditions: racemic substrate, lactic acid is 100%; for Relative GO activity, Permeabilized: permeabilized cells; for Relative GO activity, Spray-dried: spray-dried cells
# T1 construct: expressed in transfected cells; host or cells: Pichia pastoris, single recombinant (NRRL Y-21001) or double recombinant, spray-dried and/or BAC-permeabilised whole cells
# T1 sequence (P05414 1-369): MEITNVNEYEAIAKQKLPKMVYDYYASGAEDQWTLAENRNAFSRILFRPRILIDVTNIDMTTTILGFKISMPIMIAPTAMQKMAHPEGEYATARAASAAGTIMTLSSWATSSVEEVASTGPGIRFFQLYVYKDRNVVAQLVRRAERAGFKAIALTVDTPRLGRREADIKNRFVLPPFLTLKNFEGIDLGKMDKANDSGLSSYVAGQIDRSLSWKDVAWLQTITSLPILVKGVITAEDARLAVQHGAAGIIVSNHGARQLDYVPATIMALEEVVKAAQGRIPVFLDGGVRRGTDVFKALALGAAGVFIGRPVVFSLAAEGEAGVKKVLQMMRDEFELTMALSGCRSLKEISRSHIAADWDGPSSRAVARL
# Method: Glycolate Oxidase Assay • 1. Weigh approximately 40 mg spray-dried cells (record exact weight) into a 10 mL centrifuge tube. • 2. Add 8.0 mL of DCIP assay solution (0.12 mM 2,6-dichloroindophenol and 80 mM Tris, pH 8.3). A DCIP solution that is stored at 4° C. may be used for up to 2 weeks. • 3. Mix to suspend cells, then remove 50 μL of suspension (about 0.25 mg dry cells) and place in 3.0 mL quartz cuvette with flea stirrer. Add 2.0 mL of DCIP assay solution. Cap with septum and bubble with nitrogen for 3 minutes. • 4. […]
# In initial work (in the absence of spray-drying), after fermentation, cells were recovered by solid/liquid separation, and benzalkonium chloride (BAC) detergent was used to permeabilize cells for the enzyme reaction. […] Thus, another experiment (see below) compared spray-dried cells to several other methods of cell preparation: a) not spray-dried and not BAC treated, b) not spray-dried and treated with BAC, and c) spray-dried and treated with BAC. The spray-dried cells were treated with BAC after spray-drying to determine if spray-drying completely permeabilized the cells.
# Detergent Cell Permeabilization • 1. Prepare mixture of 10 weight % cells/volume 50 mM phosphate buffer (pH 7.0) at room temperature. Add 0.1% (w/v) benzalkonium chloride. • 2. Stir or mix slowly for 60 minutes at room temperature, 25° C. • 3. Centrifuge (9950×g for 10 minutes at 5° C.), decant, and re-suspend cells three times (10% w/v) in 50 mM phosphate buffer (pH 7.0) at 5° C., centrifuge, decant. • 4. Permeabilized cells may be used immediately or stored up to one year at −80° C. prior to use.
# [2] = system: glycolate oxidase; conditions: 100 mM; enzyme extracted from tobacco leaves; cited from earlier work
"Relative GO activity, Permeabilized [1] [%]","Relative GO activity, Spray-dried [1] [%]",Molecule,Effect on the catalytic action of glycolate oxidase [2]
3,3,O=C(O)C(O)c1ccccc1 (racemic) [Mandelic acid],–
100,121,O=C(O)C(O)CCl (racemic) [β-Chlorolactic acid],–
1,2,CC(C)C(O)C(=O)O (racemic) [2-Hydroxy-3-methylbutyric acid],–
91,129,CCC(O)C(=O)O (racemic) [2-Hydroxybutyric acid],–
90,94,O=C(O)CO [Glycolic acid],–
25,37,O=C(O)C(O)Cc1ccccc1 (racemic) [3-Phenyllactic acid],–
–,–,O=C(O)C(=O)O [Oxalic acid],inhibit
100,100,CC(O)C(=O)O (racemic) [Lactic acid],–
11,2,Trifluorolactic acid,–
26,38,O=C(O)C(O)Cc1ccc(O)cc1 (centres unmarked) [p-Hydroxyphenyllactic acid],–
40,49,CCCCCCCCC(O)C(=O)O (racemic) [2-Hydroxydecanoic acid],–
18,26,O=C(O)C(O)Cc1c[nH]c2ccccc12 (racemic) [3-Indolelactic acid],–
